The test deals with T1, GLP-1 Receptor (GLP1R) (Homo sapiens, UniProt P43220).
T1 construct: host or cells: HEK293/GLP1R/CRE-LUC
Put plainly: GLP-1R agonist cAMP stimulation assay (Method 3). In kind it is cell-based. The note with it: HEK293/GLP1R/CRE-LUC cells (HDB), Method 3, 30 min incubation. The procedure: Method 3: Activation of GLP-1 receptor is known to stimulate cyclic AMP (cAMP) production in cells which indicates primary coupling to the Gαs subunit of the G protein heterotrimeric complex.
To optimize functional activity directed toward Gαs coupling, a HEK293/CRE-Luc cell line developed by HDB stably expressing the GLP-1 Receptor was used, 200× concentration of compound working solutions were prepared (Agilent Technologies Bravo) with 1/2 log serial dilution in 384-well Echo LDV plate (Labcyte, Cat #LP-0200). 50 nL/well 200× concentration of compound working solutions were moved to 384-well white low volume plate (Greiner, Cat #784075) using Labcyte ECHO550. 1×10^5 cells/mL HEK293/GLP1R/CRE-LUC(HD Biosciences) cell suspensions prepared with assay buffer [DPBS containing 0.5 mM IBMX (Sigma, Cat #15879) and 0.1% BSA (GENVIEW, Cat #FA016-100 g)], 10 μL cell suspensions were added to each well of previous generated assay plate which already contains 50 nL compound at 200× concentration using ThermoFisher Multidrop Combi (1000 cells/well). Seal the plate and incubate at 37° C. with 5% CO2 for 30 min.
After incubation the cAMP assay signal was generated using cAMP dynamic 2 Kit (Cisbio). 5 μL cAMP-d2 working solution was added to each well, followed with 5 μL Anti-cAMP antibody-cryptate working solution added to each well using ThermoFisher Multidrop Combi. Incubate at room temperature for 1 hour protected from light. Read the fluorescence at 665 nm and 615 nm with Reader PerkinElmer EnVision.

The mark [1] stands for this setting: read-out: GLP1R cAMP Stimulation DR: EC50 (nM) [Species: Human, Assay Cell Line: HDB].
[2] abbreviates: read-out: GLP1R cAMP Stimulation DR: pEC50 (M) [Species: Human, Assay Cell Line: HDB] (converted).

Structures can show the parent of a compound that is named as a salt. Where two headings read alike, the source gives them in different places. A value given as a limit tells only on which side of the number the result lay.

The results in this text go back to US20240366639A1, “HETEROCYCLIC GLP-1 AGONISTS” (GASHERBRUM BIO, INC., priority 2021, published 2024).

T1 sequence (P43220 24-463): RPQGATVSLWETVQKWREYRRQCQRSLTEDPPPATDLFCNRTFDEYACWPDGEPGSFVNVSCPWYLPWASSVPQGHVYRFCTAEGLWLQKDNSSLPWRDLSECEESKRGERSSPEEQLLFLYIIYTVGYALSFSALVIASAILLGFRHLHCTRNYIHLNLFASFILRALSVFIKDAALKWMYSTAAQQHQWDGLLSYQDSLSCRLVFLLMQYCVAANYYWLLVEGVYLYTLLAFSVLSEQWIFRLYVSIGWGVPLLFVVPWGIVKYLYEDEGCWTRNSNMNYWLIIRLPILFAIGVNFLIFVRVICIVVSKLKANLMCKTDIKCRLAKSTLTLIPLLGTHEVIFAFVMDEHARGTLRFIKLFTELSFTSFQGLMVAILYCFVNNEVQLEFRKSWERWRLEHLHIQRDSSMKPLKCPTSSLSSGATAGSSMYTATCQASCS

On to `Cc1cc(-n2nc3c(c2-n2ccn(-c4cccc(P(C)(C)=O)c4)c2=O)[C@H](C)N(C(=O)c2cc4cc(C5CCOCC5)ccc4n2[C@@]2(c4noc(=O)[nH]4)C[C@@H]2C)CC3)cc(C)c1F` [Compound 109a, 3-((1S,2S)-1-(2-((S)-3-(3-(3-(dimethylphosphoryl)phenyl)-2-oxo-2,3-dihydro-1H-imidazol-1-yl)-2-(4-fluoro-3,5-dimethylphenyl)-4-methyl-4,5,6,7-tetrahydro-2H-pyrazolo[4,3-c]pyridine-5-carbonyl)-5-(tetrahydro-2H-pyran-4-yl)-1H-indol-1-yl)-2-methylcyclopropyl)-1,2,4-oxadiazol-5(4H)-one], for which the EC50 by setting is: under setting [1], 0.1 to 0.2 nM; under setting [2], 0.1 to 1 nM.
For `Cc1cc(-n2nc3c(c2-n2ccn(-c4cc(P(C)(C)=O)c5[nH]cnc5c4)c2=O)[C@H](C)N(C(=O)c2cc4cc(C5CCOCC5)ccc4n2[C@@]2(c4noc(=O)[nH]4)C[C@@H]2C)CC3)cc(C)c1F` [Compound 110a, 3-((1S,2S)-1-(2-((S)-3-(3-(7-(dimethylphosphoryl)-1H-benzo[d]imidazol-5-yl)-2-oxo-2,3-dihydro-1H-imidazol-1-yl)-2-(4-fluoro-3,5-dimethylphenyl)-4-methyl-4,5,6,7-tetrahydro-2H-pyrazolo[4,3-c]pyridine-5-carbonyl)-5-(tetrahydro-2H-pyran-4-yl)-1H-indol-1-yl)-2-methylcyclopropyl)-1,2,4-oxadiazol-5(4H)-one] the same measures were 0.5 to 5 nM and 0.1 to 1 nM.
For `Cc1cc(-n2nc3c(c2-n2ccn(-c4ccc(P(C)(C)=O)c(N)c4)c2=O)[C@H](C)N(C(=O)c2cc4cc(C5CCOCC5)ccc4n2[C@@]2(c4noc(=O)[nH]4)C[C@@H]2C)CC3)cc(C)c1F` [Compound 111a, 3-((1S,2S)-1-(2-((S)-3-(3-(3-amino-4-(dimethylphosphoryl)phenyl)-2-oxo-2,3-dihydro-1H-imidazol-1-yl)-2-(4-fluoro-3,5-dimethylphenyl)-4-methyl-4,5,6,7-tetrahydro-2H-pyrazolo[4,3-c]pyridine-5-carbonyl)-5-(tetrahydro-2H-pyran-4-yl)-1H-indol-1-yl)-2-methylcyclopropyl)-1,2,4-oxadiazol-5(4H)-one] the same measures were < 0.1 nM and ≤ 0.1 nM.
For `Cc1cc(-n2nc3c(c2-n2ccn(-c4cc(P(C)(C)=O)c5c(cnn5C)c4)c2=O)[C@H](C)N(C(=O)c2cc4cc(C5CCOCC5)ccc4n2[C@@]2(c4noc(=O)[nH]4)C[C@@H]2C)CC3)cc(C)c1F` [Compound 112a, 3-((1S,2S)-1-(2-((S)-3-(3-(7-(dimethylphosphoryl)-1-methyl-1H-indazol-5-yl)-2-oxo-2,3-dihydro-1H-imidazol-1-yl)-2-(4-fluoro-3,5-dimethylphenyl)-4-methyl-4,5,6,7-tetrahydro-2H-pyrazolo[4,3-c]pyridine-5-carbonyl)-5-(tetrahydro-2H-pyran-4-yl)-1H-indol-1-yl)-2-methylcyclopropyl)-1,2,4-oxadiazol-5(4H)-one] the same measures were 0.5 to 5 nM and 0.1 to 1 nM.
In the case of `Cc1cc(-n2nc3c(c2-n2ccn(-c4cccc(P(C)(C)=O)n4)c2=O)[C@H](C)N(C(=O)c2cc4cc(C5CCOCC5)ccc4n2[C@@]2(c4noc(=O)[nH]4)C[C@@H]2C)CC3)cc(C)c1F` [Compound 113a, 3-((1S,2S)-1-(2-((S)-3-(3-(6-(dimethylphosphoryl)pyridin-2-yl)-2-oxo-2,3-dihydro-1H-imidazol-1-yl)-2-(4-fluoro-3,5-dimethylphenyl)-4-methyl-4,5,6,7-tetrahydro-2H-pyrazolo[4,3-c]pyridine-5-carbonyl)-5-(tetrahydro-2H-pyran-4-yl)-1H-indol-1-yl)-2-methylcyclopropyl)-1,2,4-oxadiazol-5(4H)-one], the EC50 was 0.2 to 0.5 nM under setting [1] and 0.1 to 1 nM under setting [2].
For `CCP(=O)(CC)c1ccc(-n2ccn(-c3c4c(nn3-c3cc(C)c(F)c(C)c3)CCN(C(=O)c3cc5cc(C6CCOCC6)ccc5n3[C@@]3(c5noc(=O)[nH]5)C[C@@H]3C)[C@H]4C)c2=O)cc1N1CCOCC1` [Compound 114a, 3-((1S,2S)-1-(2-((S)-3-(3-(4-(diethylphosphoryl)-3-morpholinophenyl)-2-oxo-2,3-dihydro-1H-imidazol-1-yl)-2-(4-fluoro-3,5-dimethylphenyl)-4-methyl-4,5,6,7-tetrahydro-2H-pyrazolo[4,3-c]pyridine-5-carbonyl)-5-(tetrahydro-2H-pyran-4-yl)-1H-indol-1-yl)-2-methylcyclopropyl)-1,2,4-oxadiazol-5(4H)-one] the same measures were 0.2 to 0.5 nM and 0.1 to 1 nM.
For `CCP(=O)(CC)c1ccc(-n2ccn(-c3c4c(nn3-c3cc(C)c(F)c(C)c3)CCN(C(=O)c3cc5cc(C6CCOCC6)ccc5n3[C@@]3(c5noc(=O)[nH]5)C[C@@H]3C)[C@H]4C)c2=O)cc1NC(=O)C1CC1` [Compound 115a, N-(2-(diethylphosphoryl)-5-(3-((S)-2-(4-fluoro-3,5-dimethylphenyl)-4-methyl-5-(1-((1S,2S)-2-methyl-1-(5-oxo-4,5-dihydro-1,2,4-oxadiazol-3-yl)cyclopropyl)-5-(tetrahydro-2H-pyran-4-yl)-1H-indole-2-carbonyl)-4,5,6,7-tetrahydro-2H-pyrazolo[4,3-c]pyridin-3-yl)-2-oxo-2,3-dihydro-1H-imidazol-1-yl)phenyl)cyclopropanecarboxamide] the same measures were 0.2 to 0.5 nM and 0.1 to 1 nM.
Regarding `CCP(=O)(CC)c1ccc(-n2ccn(-c3c4c(nn3-c3cc(C)c(F)c(C)c3)CCN(C(=O)c3cc5cc(C6CCOCC6)ccc5n3[C@@]3(c5noc(=O)[nH]5)C[C@@H]3C)[C@H]4C)c2=O)cc1NS(C)(=O)=O` [Compound 116a], the EC50 is, setting by setting: under setting [1], 0.2 to 0.5 nM; under setting [2], 0.1 to 1 nM.
For `CCP(=O)(CC)c1ccc(-n2ccn(-c3c4c(nn3-c3cc(C)c(F)c(C)c3)CCN(C(=O)c3cc5cc(C6CCOCC6)ccc5n3[C@@]3(c5noc(=O)[nH]5)C[C@@H]3C)[C@H]4C)c2=O)cc1N(C)C` [Compound 117a, 3-((1S,2S)-1-(2-((S)-3-(3-(4-(diethylphosphoryl)-3-(dimethylamino)phenyl)-2-oxo-2,3-dihydro-1H-imidazol-1-yl)-2-(4-fluoro-3,5-dimethylphenyl)-4-methyl-4,5,6,7-tetrahydro-2H-pyrazolo[4,3-c]pyridine-5-carbonyl)-5-(tetrahydro-2H-pyran-4-yl)-1H-indol-1-yl)-2-methylcyclopropyl)-1,2,4-oxadiazol-5(4H)-one HCl salt] the same measures were 0.2 to 0.5 nM and 0.1 to 1 nM.
For `CCP(=O)(CC)c1ccc(-n2ccn(-c3c4c(nn3-c3cc(C)c(F)c(C)c3)CCN(C(=O)c3cc5cc(C6CCOCC6)ccc5n3[C@@]3(c5noc(=O)[nH]5)C[C@@H]3C)[C@H]4C)c2=O)cc1OC` [Compound 118a, 3-((1S,2S)-1-(2-((S)-3-(3-(4-(diethylphosphoryl)-3-methoxyphenyl)-2-oxo-2,3-dihydro-1H-imidazol-1-yl)-2-(4-fluoro-3,5-dimethylphenyl)-4-methyl-4,5,6,7-tetrahydro-2H-pyrazolo[4,3-c]pyridine-5-carbonyl)-5-(tetrahydro-2H-pyran-4-yl)-1H-indol-1-yl)-2-methylcyclopropyl)-1,2,4-oxadiazol-5(4H)-one] the same measures were < 0.1 nM and ≤ 0.1 nM.
Take `CCP(=O)(CC)c1ccc(-n2ccn(-c3c4c(nn3-c3cc(C)c(F)c(C)c3)CCN(C(=O)c3cc5cc(C6CCOCC6)ccc5n3[C@@]3(c5noc(=O)[nH]5)C[C@@H]3C)[C@H]4C)c2=O)cc1NC(C)C` [Compound 119a, 3-((1S,2S)-1-(2-((S)-3-(3-(4-(diethylphosphoryl)-3-(isopropylamino)phenyl)-2-oxo-2,3-dihydro-1H-imidazol-1-yl)-2-(4-fluoro-3,5-dimethylphenyl)-4-methyl-4,5,6,7-tetrahydro-2H-pyrazolo[4,3-c]pyridine-5-carbonyl)-5-(tetrahydro-2H-pyran-4-yl)-1H-indol-1-yl)-2-methylcyclopropyl)-1,2,4-oxadiazol-5(4H)-one]: the EC50 by setting is: under setting [1], 0.2 to 0.5 nM; under setting [2], 0.1 to 1 nM.
Take `CCNc1cc(-n2ccn(-c3c4c(nn3-c3cc(C)c(F)c(C)c3)CCN(C(=O)c3cc5cc(C6CCOCC6)ccc5n3[C@@]3(c5noc(=O)[nH]5)C[C@@H]3C)[C@H]4C)c2=O)ccc1P(=O)(CC)CC` [Compound 120a, 3-((1S,2S)-1-(2-((S)-3-(3-(4-(diethylphosphoryl)-3-(ethylamino)phenyl)-2-oxo-2,3-dihydro-1H-imidazol-1-yl)-2-(4-fluoro-3,5-dimethylphenyl)-4-methyl-4,5,6,7-tetrahydro-2H-pyrazolo[4,3-c]pyridine-5-carbonyl)-5-(tetrahydro-2H-pyran-4-yl)-1H-indol-1-yl)-2-methylcyclopropyl)-1,2,4-oxadiazol-5(4H)-one]: the EC50 is < 0.1 nM under setting [1] and ≤ 0.1 nM under setting [2].
